This note sets out measurements from ChEMBL document CHEMBL2434901, “2-Phenylbenzofuran derivatives alleviate mitochondrial damage via the inhibition of β-amyloid aggregation” (Bioorg Med Chem Lett, 2013).

Activity calls are given as the source filed them. The calls are words filed in the database; no cut-off is given here.

In data set [1] the target is Amyloid-beta precursor protein (Homo sapiens) (UniProt P05067). The data set is described as follows: Inhibition of amyloid beta (unknown origin) fibril formation at 10 uM by thioflavin T fluorescent dye assay.
Amyloid-beta precursor protein (Homo sapiens), sequence (P05067 whole entry): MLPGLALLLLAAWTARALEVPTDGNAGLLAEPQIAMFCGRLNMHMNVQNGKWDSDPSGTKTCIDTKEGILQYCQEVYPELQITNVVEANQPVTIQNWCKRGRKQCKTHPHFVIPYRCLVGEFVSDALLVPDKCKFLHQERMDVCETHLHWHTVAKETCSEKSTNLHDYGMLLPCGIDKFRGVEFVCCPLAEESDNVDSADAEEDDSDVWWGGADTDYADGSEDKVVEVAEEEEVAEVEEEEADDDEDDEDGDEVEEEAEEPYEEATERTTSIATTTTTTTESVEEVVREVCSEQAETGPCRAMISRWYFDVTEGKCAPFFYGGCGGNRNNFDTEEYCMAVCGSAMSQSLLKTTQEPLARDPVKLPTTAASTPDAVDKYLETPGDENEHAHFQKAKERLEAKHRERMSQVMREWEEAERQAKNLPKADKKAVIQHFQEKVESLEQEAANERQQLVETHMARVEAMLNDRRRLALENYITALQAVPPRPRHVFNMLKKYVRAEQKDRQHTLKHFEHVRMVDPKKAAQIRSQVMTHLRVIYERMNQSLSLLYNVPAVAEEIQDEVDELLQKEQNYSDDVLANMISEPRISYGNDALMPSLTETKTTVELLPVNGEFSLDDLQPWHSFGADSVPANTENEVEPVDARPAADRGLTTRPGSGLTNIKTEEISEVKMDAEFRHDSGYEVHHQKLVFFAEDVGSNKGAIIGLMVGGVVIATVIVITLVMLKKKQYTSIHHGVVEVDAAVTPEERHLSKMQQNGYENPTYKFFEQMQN
The nature of data set [2]: Cytotoxicity against mouse HT22 cells assessed as cell viability at 10 uM by MTT assay relative to control. It is filed as cell-based, HT-22. The settings on record: read-out: Activity. Background: Formazan colour is commonly taken as a measure of viable cells.
Data set [3] addresses Amyloid-beta precursor protein (Homo sapiens) (UniProt P05067). The data set is described as follows: Inhibition of amyloid beta (1 to 42) (unknown origin) oligomerization at 10 uM after 2 hrs by SDS-PAGE analysis.
In data set [4] the test system is HT-22. Nature of the data set: Neuroprotective activity in mouse HT22 cells assessed as reduction of amyloid beta (1 to 42)-induced cytotoxicity by measuring green to red fluorescence ratio using JC1 staining at 10 uM after 10 mins relative to amyloid beta (1 to 42) treated control. Type of data set: functional.
The subject of data set [5] is HT-22. The data set is described as follows: Neuroprotective activity in mouse HT22 cells assessed as reduction of amyloid beta (1 to 42)-induced cytotoxicity by measuring green to red fluorescence ratio using JC1 staining at 10 uM after 10 mins relative to control. It is filed as functional. The settings on record: HT-22, 10 min.

As for `CN(C)c1ccccc1-c1cc2cc(/C=C/C(=O)O)cc(O)c2o1`, the inhibition in data set [1] came out at 8.1%. In data set [1], `O=C(O)/C=C/c1cc(O)c2oc(-c3cccc(O)c3)cc2c1` displayed an inhibition of 0%. For `O=C(O)/C=C/c1cc(O)c2oc(-c3cccc(F)c3)cc2c1`, the inhibition in data set [1] was 14.3%. As to `O=C(O)/C=C/c1cc(O)c2oc(-c3ccc(F)cc3)cc2c1`, the inhibition in data set [1] came out at 26.7%. In data set [1], `COc1ccc(-c2cc3cc(/C=C/C(=O)O)cc(O)c3o2)cc1` showed an inhibition of 34.2%.

`CN(C)c1ccc(-c2cc3cc(/C=C/C(=O)O)ccc3o2)cc1` displayed an inhibition in data set [1] of 57%. On to `COc1cc(-c2cc3cc(/C=C/C(=O)O)cc(OC)c3o2)ccc1N(C)C`, for which the inhibition in data set [1] came to 50.2%. The viability at 10 µM in data set [2] is 104%. Besides, the inhibition entry in data set [3] was “Active”. Also, in the data set on HT-22 [4], the Ratio was 104.2. In turn, `COc1cc(/C=C/C(=O)O)cc2cc(-c3ccccc3N(C)C)oc12` returned an inhibition in data set [1] of 3.7%. For the compound `COc1cc(/C=C/C(=O)O)cc2cc(-c3ccc(N(C)C)cc3)oc12`, the inhibition in data set [1] worked out at 72.6%. The viability at 10 µM in data set [2] came out at 93.3%. In addition, the inhibition result in data set [3] was “Active”. Moreover, the Ratio in the data set on HT-22 [4] was determined as 90.3. `CN(C)c1cccc(-c2cc3cc(/C=C/C(=O)O)cc(O)c3o2)c1` yielded an inhibition in data set [1] of 33.3%.

As for `COc1ccccc1-c1cc2cc(/C=C/C(=O)O)cc(O)c2o1`, the inhibition in data set [1] came out at 0%. Consider `O=C(O)/C=C/c1cc(O)c2oc(-c3ccccc3O)cc2c1`, for which the inhibition in data set [1] was 28.3%. Consider `COc1ccc(-c2cc3cc(/C=C/C(=O)O)cc(O)c3o2)cc1O`, for which the inhibition in data set [1] came to 43.3%. Further, the viability at 10 µM in data set [2] stood at 104%. Further, the Ratio in the data set with HT-22 [4] worked out at 122.1. The inhibition at 10 µM in the data set on HT-22 [5] was 14.5%. Consider `COc1ccc(-c2cc3cc(/C=C/C(=O)O)cc(OC)c3o2)cc1`, for which the inhibition in data set [1] was determined as 12.5%. In data set [1], `O=C(O)/C=C/c1cc(O)c2oc(-c3ccc(O)cc3)cc2c1` showed an inhibition of 22.4%. In data set [1], `COc1ccc(-c2cc3cc(/C=C/C(=O)O)cc(O)c3o2)cc1N(C)C` yielded an inhibition of 32.5%.

Turning to `COc1cc(/C=C/C(=O)O)cc2cc(-c3ccc(F)c(N(C)C)c3)oc12`, the inhibition in data set [1] worked out at 9.9%. `COc1cc(/C=C/C(=O)O)cc2cc(-c3ccccc3F)oc12`: the inhibition in data set [1] is 7%. On to `COc1cc(-c2cc3cc(/C=C/C(=O)O)cc(OC)c3o2)ccc1O`, for which the inhibition in data set [1] amounted to 28.4%. In turn, `COc1cccc(-c2cc3cc(/C=C/C(=O)O)cc(O)c3o2)c1` displayed an inhibition in data set [1] of 0%.

In turn, `COc1cc(/C=C/C(=O)O)cc2cc(-c3cccc(O)c3)oc12` came in with an inhibition in data set [1] of 0%. For the compound `COc1cc(/C=C/C(=O)O)cc2cc(-c3ccccc3O)oc12`, the inhibition in data set [1] was 18.1%. On the same count and under the same terms, in the case of `O=C(O)/C=C/c1cc(O)c2oc(-c3ccccc3F)cc2c1` it was 19.7%; in that of `COc1ccc(-c2cc3cc(/C=C/C(=O)O)cc(OC)c3o2)cc1O`, 0%. With `COc1cc(/C=C/C(=O)O)cc2cc(-c3cccc(N(C)C)c3)oc12`, the inhibition in data set [1] is 34.8%. The compound `COc1ccc(-c2cc3cc(/C=C/C(=O)O)cc(OC)c3o2)cc1N(C)C` gave an inhibition in data set [1] of 11.7%. In turn, `CN(C)c1cc(-c2cc3cc(/C=C/C(=O)O)cc(O)c3o2)ccc1F` displayed an inhibition in data set [1] of 16.8%.

As to `COc1cc(/C=C/C(=O)O)cc2cc(-c3cccc(F)c3)oc12`, the inhibition in data set [1] is 0.4%. Take `COc1cc(/C=C/C(=O)O)cc2cc(-c3ccc(N(C)C)c(F)c3)oc12`: the inhibition in data set [1] came to 57.5%. In addition, in data set [2], the viability at 10 µM stood at 102%. Also, the inhibition result in data set [3] was “Active”. For the same compound, in the data set with HT-22 [4], the Ratio is recorded as 103.1. Compound `COc1cc(/C=C/C(=O)O)ccc1O` registered an inhibition in data set [1] of 42.8%. In data set [3], the inhibition result is “Active”. Regarding `COc1cc(-c2cc3cc(/C=C/C(=O)O)cc(O)c3o2)ccc1N(C)C`, the inhibition in data set [1] is 45.9%. For the same compound, in data set [2], the viability at 10 µM came to 102%. Besides, the inhibition entry in data set [3] is “Active”. In addition, the Ratio with HT-22 [4] stood at 113.4. In addition, in the data set on HT-22 [5], the inhibition at 10 µM was determined as 45%. `COc1cc(-c2cc3cc(/C=C/C(=O)O)cc(O)c3o2)ccc1O` had an inhibition in data set [1] of 42.6%. Also, the viability at 10 µM in data set [2] worked out at 105%. In addition, the Ratio in the data set with HT-22 [4] turned out to be 115.9. In turn, `O=C(O)/C=C/c1cc(O)c2oc(-c3ccccc3)cc2c1` registered an inhibition in data set [1] of 16.8%. Compound `COc1cc(/C=C/C(=O)O)cc2cc(-c3ccc(F)cc3)oc12` gave an inhibition in data set [1] of 2.7%. With `COc1cc(/C=C/C(=O)O)cc2cc(-c3ccc(O)cc3)oc12`, the inhibition in data set [1] came to 14.8%.

For the compound `CN(C)c1ccc(-c2cc3cc(/C=C/C(=O)O)cc(O)c3o2)cc1`, the inhibition in data set [1] was 70.6%. The viability at 10 µM in data set [2] came out at 100%. Further, the inhibition entry in data set [3] is “Active”. Besides, the Ratio with HT-22 [4] is 123.2. Moreover, the inhibition at 10 µM in the data set on HT-22 [5] is 73.1%. Take `COc1cc(/C=C/C(=O)O)cc2cc(-c3ccccc3)oc12`: in data set [1], the inhibition came to 0%. Still for that read-out and setting: in the case of `COc1ccccc1-c1cc2cc(/C=C/C(=O)O)cc(OC)c2o1` it was 0%; in that of `COc1cccc(-c2cc3cc(/C=C/C(=O)O)cc(OC)c3o2)c1`, 0%. Regarding `CN(C)c1ccc(-c2cc3cc(/C=C/C(=O)O)cc(O)c3o2)cc1F`, in data set [1], the inhibition is 49.8%. Besides, in data set [2], the viability at 10 µM came to 111%. In data set [3], the inhibition result was “Active”. Besides, in the data set with HT-22 [4], the Ratio is recorded as 115.7. In addition, in the data set with HT-22 [5], the inhibition at 10 µM turned out to be 22.3%.

The inhibition is the change of the read-out against control, counted positive when it falls.
